The record followed here is PubChem BioAssay AID330 (DTP/NCI, 2004).

Molecules are shown by their SMILES. Several values for one entry are separate records, joined by “and”; a condition that tells them apart may be missing. Identical values can stand only once. Toxic doses and inconclusive results are not listed.

This test has as its system P388 leukemia ip, CD2F1 mice, survival T/C. The test is described as follows: NCI In Vivo Anticancer Drug Screen. Data for tumor model P388 Leukemia (intraperitoneal) in CD2F1 (CDF1) mice. The settings on record: endpoint: median survival time, higher = longer survival. A digest of the protocol: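 Mice carrying the transplanted tumor received test compound or vehicle. Survival was recorded in each group, and the value is the treated-group measurement divided by that of the vehicle-treated control group.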

Where [1] appears, read: dose: 100.0 mg/kg/injection, schedule: Q01DX009 (ip), vehicle: saline with Tween-80.
Where [2] appears, read: dose: 100.0 mg/kg/injection, schedule: Q04DX003 (ip), vehicle: saline with Tween-80.
The mark [3] stands for this setting: dose: 200.0 mg/kg/injection, schedule: Q01DX009 (ip), vehicle: saline with Tween-80.
The mark [4] stands for this setting: dose: 200.0 mg/kg/injection, schedule: Q04DX003 (ip), vehicle: saline with Tween-80.
The mark [5] stands for this setting: dose: 400.0 mg/kg/injection, schedule: Q04DX003 (ip), vehicle: saline with Tween-80.
Setting [6] is: dose: 50.0 mg/kg/injection, schedule: Q01DX009 (ip), vehicle: saline with Tween-80.
The mark [7] stands for this setting: dose: 60.0 mg/kg/injection, schedule: Q01DX005 (ip), vehicle: saline.
Where [8] appears, read: dose: 120.0 mg/kg/injection, schedule: Q01DX005 (ip), vehicle: saline.
[9] abbreviates: dose: 240.0 mg/kg/injection, schedule: Q01DX005 (ip), vehicle: saline.
Where [10] appears, read: dose: 12.5 mg/kg/injection, schedule: Q01DX009 (ip), vehicle: saline.
Where [11] appears, read: dose: 25.0 mg/kg/injection, schedule: Q01DX009 (ip), vehicle: saline.
Where [12] appears, read: dose: 50.0 mg/kg/injection, schedule: Q01DX009 (ip), vehicle: saline.
[13] abbreviates: dose: 12.5 mg/kg/injection, schedule: Q01DX005 (ip), vehicle: saline with Tween-80.
Where [14] appears, read: dose: 25.0 mg/kg/injection, schedule: Q01DX009 (ip), vehicle: saline with Tween-80.
The mark [15] stands for this setting: dose: 50.0 mg/kg/injection, schedule: Q01DX005 (ip), vehicle: Klucel (hydroxypropylcellulose) (HPC).
Where [16] appears, read: dose: 100.0 mg/kg/injection, schedule: Q01DX005 (ip), vehicle: Klucel (hydroxypropylcellulose) (HPC).
[17] abbreviates: dose: 200.0 mg/kg/injection, schedule: Q01DX005 (ip), vehicle: Klucel (hydroxypropylcellulose) (HPC).

Consider `Cc1ccc(C(=O)c2ccccc2C(=O)O)cc1N`, for which the T/C was 100 % of control under setting [1]; 100 % of control under setting [2]; 100 % of control under setting [3]; 100 % of control under setting [4]; 100 % of control (dose: 400.0 mg/kg/injection, schedule: Q01DX009 (ip), vehicle: saline with Tween-80); 108 % of control under setting [5].

Take `NC(=O)c1ccc(-c2csc(=S)[nH]2)s1`: the T/C by setting is: under setting [6], 100 % of control and 105 % of control; under setting [1], 101 % of control and 108 % of control; under setting [3], 96 % of control.

Regarding `C1OC2C1OC1COC12` (configuration not stated), the T/C under setting [7] was 108 % of control, the T/C under setting [8] was 100 % of control and the T/C under setting [9] is 107 % of control.

As to `COC(=O)C1=[N+]([O-])[N+]([O-])=C(C(=O)OC)C1=O`, the T/C (dose: 12.5 mg/kg/injection, schedule: Q01DX009 (ip), vehicle: Klucel (hydroxypropylcellulose) (HPC)) is 95 % of control and the T/C (dose: 25.0 mg/kg/injection, schedule: Q01DX009 (ip), vehicle: Klucel (hydroxypropylcellulose) (HPC)) is 94 % of control.

Take `CCN(CC)CCOC(=O)/C=C/c1ccccc1`: the T/C runs as follows: under setting [7], 106 % of control; under setting [8], 107 % of control; under setting [9], 102 % of control.

Take `CCC[CH2][Sn]1([CH2]CCC)[O]CCN2CCN(CC[O]1)CC2`: the T/C is, setting by setting: (dose: 3.75 mg/kg/injection, schedule: Q01DX005 (ip), vehicle: saline with Tween-80) 102 % of control; (dose: 7.5 mg/kg/injection, schedule: Q01DX005 (ip), vehicle: saline with Tween-80) 100 % of control; (dose: 15.0 mg/kg/injection, schedule: Q01DX005 (ip), vehicle: saline with Tween-80) 100 % of control.

`c1ccc(C2SC3=NCCCN3Cc3ccccc32)cc1` (configuration not stated): the T/C is, setting by setting: under setting [10], 104 % of control; under setting [11], 109 % of control; under setting [12], 104 % of control and 97 % of control.

For `C=CCC(CC)(C(=O)Nc1ccc2nc(C)cc(N)c2c1)C(=O)Nc1ccc2nc(C)cc(N)c2c1`, the T/C reads like this: (dose: 6.25 mg/kg/injection, schedule: Q01DX005 (ip), vehicle: saline with Tween-80) 94 % of control; under setting [13], 89 % of control; (dose: 100.0 mg/kg/injection, schedule: Q01DX005 (ip), vehicle: saline with Tween-80) 87 % of control; (dose: 200.0 mg/kg/injection, schedule: Q01DX005 (ip), vehicle: saline with Tween-80) 96 % of control.

For the molecule `CCOC(=O)C1c2cccc(O)c2CCN1C(C)=O` (configuration not stated), the T/C is 100 % of control (dose: 60.0 mg/kg/injection, schedule: Q01DX005 (ip), vehicle: Klucel (hydroxypropylcellulose) (HPC)); 100 % of control (dose: 120.0 mg/kg/injection, schedule: Q01DX005 (ip), vehicle: Klucel (hydroxypropylcellulose) (HPC)); 98 % of control (dose: 240.0 mg/kg/injection, schedule: Q01DX005 (ip), vehicle: Klucel (hydroxypropylcellulose) (HPC)).

Turning to `CC1(C)N=C(N)N=C(N)N1c1ccc(OCCCOc2ccc(S(=O)(=O)F)cc2)c(Cl)c1`, the T/C is 120 % of control (dose: 12.5 mg/kg/injection, schedule: Q04DX003 (ip), vehicle: saline) and 115 % of control (dose: 25.0 mg/kg/injection, schedule: Q04DX003 (ip), vehicle: saline).

On to `CS(C)=NC(=Nc1ccc(Cl)cc1)c1ccccc1`, for which the T/C is 95 % of control under setting [14] and 106 % of control under setting [6].

Consider `CCOC(=O)n1oc2c(Br)cc(Br)cc2c1=O`, for which the T/C reads like this: (dose: 50.0 mg/kg/injection, schedule: Q04DX002 (ip), vehicle: Klucel (hydroxypropylcellulose) (HPC)) 105 % of control; (dose: 100.0 mg/kg/injection, schedule: Q04DX002 (ip), vehicle: Klucel (hydroxypropylcellulose) (HPC)) 99 % of control; (dose: 200.0 mg/kg/injection, schedule: Q04DX002 (ip), vehicle: Klucel (hydroxypropylcellulose) (HPC)) 101 % of control.

On to `N#CC1CC=CCN1CCc1ccccc1` (configuration not stated), for which the T/C (dose: 12.5 mg/kg/injection, schedule: Q01DX005 (ip), vehicle: other) was 101 % of control; the T/C (dose: 25.0 mg/kg/injection, schedule: Q01DX005 (ip), vehicle: other) is 101 % of control; the T/C (dose: 50.0 mg/kg/injection, schedule: Q01DX005 (ip), vehicle: other) is 111 % of control; the T/C (dose: 50.0 mg/kg/injection, schedule: Q01DX005 (ip), vehicle: saline + Tween-80 + alcohol) is 116 % of control.

For the molecule `O=C(O)/C=C(\F)C(=O)O`, the T/C by setting is: (dose: 12.5 mg/kg/injection, schedule: Q01DX005 (ip), vehicle: saline) 97 % of control and 94 % of control; (dose: 25.0 mg/kg/injection, schedule: Q01DX005 (ip), vehicle: saline) 100 % of control and 96 % of control; (dose: 50.0 mg/kg/injection, schedule: Q01DX005 (ip), vehicle: saline) 100 % of control and 107 % of control; (dose: 100.0 mg/kg/injection, schedule: Q01DX005 (ip), vehicle: saline) 92 % of control and 97 % of control; (dose: 200.0 mg/kg/injection, schedule: Q01DX005 (ip), vehicle: saline) 97 % of control.

For `Cc1cc(=O)c2c(ccc3[nH]c(-c4ccco4)nc32)[nH]1`, the T/C runs as follows: (dose: 100.0 mg/kg/injection, schedule: Q01DX001 (ip), vehicle: saline with Tween-80) 94 % of control; (dose: 200.0 mg/kg/injection, schedule: Q01DX001 (ip), vehicle: saline with Tween-80) 100 % of control; (dose: 400.0 mg/kg/injection, schedule: Q01DX001 (ip), vehicle: saline with Tween-80) 92 % of control.

With `O=C(NCCN(C(=O)C12CC3CC(CC(C3)C1)C2)c1ccc(F)cc1)C12CC3CC(CC(C3)C1)C2`, the T/C is 105 % of control (dose: 6.25 mg/kg/injection, schedule: Q01DX009 (ip), vehicle: saline with Tween-80); 92 % of control (dose: 12.5 mg/kg/injection, schedule: Q01DX009 (ip), vehicle: saline with Tween-80); 100 % of control under setting [14].

Consider `COc1ccc(C(=O)CC(C(=O)O)c2ccc3c(c2)OCO3)cc1OC` (configuration not stated), for which the T/C under setting [2] is 100 % of control, the T/C under setting [4] is 90 % of control and the T/C under setting [5] was 90 % of control.

Regarding `COC1=CC(=O)C(OC)=C(OC)C1=O`, the T/C reads like this: (dose: 22.0 mg/kg/injection, schedule: Q01DX009 (ip), vehicle: saline with Tween-80) 112 % of control; (dose: 33.0 mg/kg/injection, schedule: Q01DX009 (ip), vehicle: saline with Tween-80) 123 % of control; (dose: 75.0 mg/kg/injection, schedule: Q01DX009 (ip), vehicle: saline with Tween-80) 104 % of control.

For the molecule `CNC(=N)c1ccc(NC(=N)c2ccc(NC(=N)c3ccc(NC(=N)c4ccc(C(=N)NC)cc4)cc3)cc2)cc1`, the T/C (dose: 9.0 mg/kg/injection, schedule: Q01DX009 (ip), vehicle: saline with Tween-80) was 154 % of control; the T/C (dose: 13.0 mg/kg/injection, schedule: Q01DX009 (ip), vehicle: saline with Tween-80) is 190 % of control; the T/C (dose: 20.0 mg/kg/injection, schedule: Q01DX009 (ip), vehicle: saline with Tween-80) was 254 % of control.

For the molecule `COC(=O)c1cc([N+](=O)[O-])ccc1N=NNc1ccccc1`, the T/C was 106 % of control under setting [10]; 103 % of control and 95 % of control under setting [11]; 100 % of control and 105 % of control and 95 % of control under setting [12]; 87 % of control (dose: 200.0 mg/kg/injection, schedule: Q01DX009 (ip), vehicle: saline).

Take `COC1=C(OC)C(=O)C(Sc2ccccc2)=C(CO)C1=O`: the T/C runs as follows: (dose: 1.56 mg/kg/injection, schedule: Q01DX005 (ip), vehicle: saline with Tween-80) 92 % of control; (dose: 3.12 mg/kg/injection, schedule: Q01DX005 (ip), vehicle: saline with Tween-80) 87 % of control; under setting [13], 99 % of control.

Turning to `CN(/N=C\c1cc(Cl)cc(Cl)c1O)c1ccccc1[N+](=O)[O-]`, the T/C reads like this: under setting [15], 101 % of control; under setting [16], 95 % of control; under setting [17], 101 % of control.

As to `Nc1ccc(-c2ccc(N=C(/C=N/O)NO)cc2)cc1`, the T/C under setting [15] is 102 % of control, the T/C under setting [16] is 100 % of control and the T/C under setting [17] is 94 % of control.

For the molecule `C=CCNC(=S)N=Nc1c(O)[nH]c2ccccc12`, the T/C is, setting by setting: under setting [6], 94 % of control; under setting [1], 91 % of control; under setting [3], 88 % of control.
